The test system of one series is MRC-5 normal cell line. Description: MTT cytotoxic assay, normal cell line MRC-5. The series is classed as cell-based. The settings on record: read-out: IC50 ± SD MRC-5.
The subject of series [1] is MCF-7 (breast carcinoma) cell line. As to the kind of experiment: MTT cytotoxic assay, MCF-7. The class given is cell-based. The settings on record: for IC50: MTT, 72 h, 3 repetitions, read-out: IC50 ± SD MCF-7. On the procedure: The antiproliferative activity of all the synthesized compounds (8a-8 h) was done by MTT (standard 3-(4,5-dimethylthiazol-yl)-2,5-diphenyl-tetrazolium bromide) assay according to our previous protocols. MCF-7 (breast carcinoma) and SW480 (Colorectal carcinoma) cell lines were choose and purchased from the National Cell Bank of Iran (NCBI, Pasteur Institute, Tehran, Iran). RPMI 1640 culture media with 10% fetal bovine serum (FBS) and 1% penicillin-streptomycin (Gibco, USA) were applied as culture. Trypsin/EDTA 0.5% solution (Gibco/USA) was used to harvest cells and then, the cells were seeded at a density of 1 × 10^4 cells per well in 96-well microplates. […] Three untreated wells were applied as the negative control. After 72 h, the media was changed by 100 µL fresh MTT solution and incubated for 4 h at 37 °C in the incubator to achieve formazan purple crystals. Finally, the media was removed and 150 µL of DMSO was added and incubated at 37 °C in the dark for 10 min to dissolve the crystals. A Microplate ELISA reader was applied to read the absorbance of individual wells at 490 nm. Analysis of the data was obtained by Excel 2016 and Curve Expert 1.4. The data was expressed as the mean ± SD for each analysis. GraphPad Prism software was used to perform one-way ANOVA statistical analyses, followed by Tukey’s multiple comparison test.
(In general: Tetrazolium assays rely on reduction of a dye to a coloured formazan, in cell work by metabolically active cells.)

The test system of series [2] is SW480 (Colorectal carcinoma) cell line. As to the kind of experiment: MTT cytotoxic assay, SW480. The series is classed as cell-based. The settings on record: Homo sapiens, 72 h, 3 repetitions, read-out: IC50 ± SD SW480. Here is the method: The antiproliferative activity of all the synthesized compounds (8a-8 h) was done by MTT (standard 3-(4,5-dimethylthiazol-yl)-2,5-diphenyl-tetrazolium bromide) assay according to our previous protocols. MCF-7 (breast carcinoma) and SW480 (Colorectal carcinoma) cell lines were choose and purchased from the National Cell Bank of Iran (NCBI, Pasteur Institute, Tehran, Iran). RPMI 1640 culture media with 10% fetal bovine serum (FBS) and 1% penicillin-streptomycin (Gibco, USA) were applied as culture. Trypsin/EDTA 0.5% solution (Gibco/USA) was used to harvest cells and then, the cells were seeded at a density of 1 × 10^4 cells per well in 96-well microplates. Five different concentrations of the derivatives and Cisplatin as the positive control (1 to 200 µM) were used for treatment in triplicate times. Three untreated wells were applied as the negative control. After 72 h, the media was changed by 100 µL fresh MTT solution and incubated for 4 h at 37 °C in the incubator to achieve formazan purple crystals. Finally, the media was removed and 150 µL of DMSO was added and incubated at 37 °C in the dark for 10 min to dissolve the crystals. A Microplate ELISA reader was applied to read the absorbance of individual wells at 490 nm. Analysis of the data was obtained by Excel 2016 and Curve Expert 1.4. The data was expressed as the mean ± SD for each analysis. GraphPad Prism software was used to perform one-way ANOVA statistical analyses, followed by Tukey’s multiple comparison test.

[3] abbreviates: Homo sapiens, MRC5, 3 repetitions.

Like-named read-outs stand apart in the source and are kept apart here.

As usually defined, the IC50 is the concentration that inhibits the measured activity by half. Take `N.N.[Cl][Pt][Cl]` [Cisplatin, reference compound]: the 50% inhibitory concentration (IC50) in the series with MRC-5 normal cell line (3 repetitions) worked out at 45.2 ± 2.5 µM; in series [1], 9.9 ± 0.14 µM.
For `COc1cccc2c1C(=O)c1c(O)c3c(c(O)c1C2=O)C[C@@](O)(C(=O)CO)C[C@@H]3O[C@H]1C[C@H](N)[C@H](O)[C@H](C)O1` [Doxorubicin, reference compound], the IC50 is 3.67 ± 0.24 µM in series [2]; 0.52 ± 0.07 µM with MRC-5 normal cell line (setting [3]); 2.5 ± 0.64 µM in series [1] (Homo sapiens, MCF7).
As a reminder, the melting point is the temperature of the solid-liquid transition. Molecule `O=c1c2cc(Br)ccc2nc(SCc2ccc([N+](=O)[O-])cc2)n1-c1ccccc1` [8h, 6-bromo-2-((4-nitrobenzyl)thio)-3-phenylquinazolin-4(3 H )-one] had a melting point of 231 to 233 °C. In addition, in series [2], the IC50 is 65.4 ± 2.8 µM. In addition, the IC50 in the series with MRC-5 normal cell line (setting [3]) was greater than 100 µM. Besides, the IC50 in series [1] (Homo sapiens, MCF7) amounted to 73.4 ± 3.09 µM.
For `Cc1cccc(CSc2nc3ccc(Br)cc3c(=O)n2-c2ccccc2)c1` [8d, 6-bromo-2-((3-methylbenzyl)thio)-3-phenylquinazolin-4(3 H )-one] the same measures were 101 to 103 °C, 72.5 ± 2.9 µM, greater than 100 µM and 59.1 ± 3.73 µM.
For the molecule `CCCCSc1nc2ccc(Br)cc2c(=O)n1-c1ccccc1` [8a, 6-bromo-2-(butylthio)-3-phenylquinazolin-4(3 H )-one], the melting point is 128 to 130 °C. In series [2], the IC50 worked out at 17.9 ± 0.92 µM. In addition, the IC50 in the series on MRC-5 normal cell line (setting [3]) is 84.2 ± 1.72 µM. For the same molecule, the IC50 in series [1] (Homo sapiens, MCF7) turned out to be 15.8 ± 1.48 µM. For the same molecule, in series [1] (cytotoxic activity compared with Erlotinib), the “times more potent than Erlotinib in MCF-7 cell line” value is “about 2 times”.
With `O=c1c2cc(Br)ccc2nc(SCc2ccc(Br)cc2)n1-c1ccccc1` [8g, 6-bromo-2-((4-bromobenzyl)thio)-3-phenylquinazolin-4(3 H )-one], the melting point fell in the range of 175 to 177 °C. In addition, the IC50 in series [2] was 68.4 ± 2.62 µM. For the same molecule, in the series on MRC-5 normal cell line (setting [3]), the half-maximal inhibitory concentration (IC50) was greater than 100 µM. Further, the IC50 in series [1] (Homo sapiens, MCF7) is 62.4 ± 3.32 µM.
The molecule `CCCCCSc1nc2ccc(Br)cc2c(=O)n1-c1ccccc1` [8b, 6-bromo-2-(pentylthio)-3-phenylquinazolin-4(3 H )-one] had a melting point of 99 to 101 °C. Also, in series [2], the IC50 worked out at 56.5 ± 2.83 µM. The IC50 in the series with MRC-5 normal cell line (setting [3]) was 76.4 ± 2.62 µM. Moreover, the IC50 in series [1] (Homo sapiens, MCF7) was 18.2 ± 2.01 µM.
As for `O=c1c2cc(Br)ccc2nc(SCc2ccccc2)n1-c1ccccc1` [8c, 2-(benzylthio)-6-bromo-3-phenylquinazolin-4(3 H )-one], the melting point lay within 140 to 142 °C. Also, the IC50 in series [2] stood at 170.1 ± 1.34 µM. Moreover, in the series on MRC-5 normal cell line (setting [3]), the IC50 was greater than 100 µM. Moreover, the IC50 in series [1] (Homo sapiens, MCF7) was determined as 142 ± 3.95 µM.
With `O=c1c2cc(Br)ccc2nc(SCc2ccc(Cl)cc2)n1-c1ccccc1` [8f, 6-bromo-2-((4-chlorobenzyl)thio)-3-phenylquinazolin-4(3 H )-one], the melting point lay in the range of 145 to 147 °C. In series [2], the IC50 worked out at 72.2 ± 1.41 µM. Moreover, the IC50 in the series on MRC-5 normal cell line (setting [3]) was greater than 100 µM. Further, in series [1] (Homo sapiens, MCF7), the IC50 turned out to be 52.5 ± 2.92 µM.
In turn, `Cc1ccc(CSc2nc3ccc(Br)cc3c(=O)n2-c2ccccc2)cc1` [8e, 6-bromo-2-((4-methylbenzyl)thio)-3-phenylquinazolin-4(3 H )-one] displayed a melting point of 164 to 166 °C. In addition, the IC50 in series [2] was found to be 63.1 ± 1.63 µM. The IC50 in the series on MRC-5 normal cell line (setting [3]) was greater than 100 µM. Moreover, the IC50 in series [1] (Homo sapiens, MCF7) came to 35.1 ± 3.02 µM.
For the molecule `C#Cc1cccc(Nc2ncnc3cc(OCCOC)c(OCCOC)cc23)c1` [Erlotinib, reference compound], the IC50 in series [2] stood at 11.2 ± 0.38 µM; in the series on MRC-5 normal cell line (setting [3]), 22.9 ± 3.1 µM.

Values taken from publication PMC11225515, “6-Bromo quinazoline derivatives as cytotoxic agents: design, synthesis, molecular docking and MD simulation” (BMC Chemistry, 2024).
